We go through two compounds from US20240180849A1, “IMMUNOFUNCTIONAL CARRIER, METHODS OF USES, AND COMPOSITION MATTERS AS AN ANTITUMOR IMMUNOTHERAPY” (priority 2021, published 2024).

One data set deals with BMDCs. The data set is described as follows: Cytotoxicity, propidium iodide staining. The class given is cell-based, mouse. The conditions noted are these: at ≤PTX 2 μg/mL (and 2E′ 10 μg/mL). The procedure:
(§1) Bone marrow-derived dendritic cells (BMDCs) and bone marrow-derived macrophages (BMDMs) were differentiated from mouse bone marrow cells. The bone marrow was collected from the femur of female Balb/c or male C57BL/6 mice (7 weeks old), pipetted several times, and passed through a 100 and 40 μm cell strainer to obtain single-cell suspension. The cells were collected by centrifugation at 500 ref for 8 min, treated with ACK lysis buffer, rinsed, and cultured in Alpha minimum essential medium (MEM-Alpha, ribonucleosides, deoxyribonucleosides, 4 mM L-glutamine, 1 mM sodium pyruvate) supplemented with 100 units/mL penicillin, 100 μg/mL streptomycin, […] β-mercaptoethanol, 20 ng/ml murine GM-CSF and 20% fetal bovine serum. After 7 days, floating or loosely adherent cells were collected by centrifugation and identified as BMDC by APC anti-mouse CD11c antibody labeling. Adherent cells were identified as BMDM by FITC anti-mouse F4/80 antibody labeling.

The next data set deals with splenocytes. The data set is described as follows: Cytotoxicity, propidium iodide staining. Format: cell-based, mouse. The conditions noted are these: at ≤PTX 2 μg/mL (and 2E′ 10 μg/mL). The procedure: The spleen was collected from healthy or tumor-bearing mice to isolate splenocytes. The collected spleens were cut into pieces and filtered through 70 μm and 40 μm cell strainers sequentially to obtain a single-cell suspension. The cell suspension was incubated with 1 mL ammonium-chloride-potassium (ACK) lysis buffer for 3 min to remove red blood cells.

The test system of another data set is CT26 cells. The data set is described as follows: Cytotoxicity, MTT assay. The class given is cell-based, mouse. The procedure:
CT26 cells, B16F10 cells, BMDC, or splenocytes were seeded in a 96 well plate at a density of 8,000 cells per well (CT26, B16F10) or 15,000 cells per well (BMBCs, splenocytes). […] After incubation for another 24 h, the cell cytotoxicity was measured by the MTT assay (CT26, B16F10) or propidium iodide (PI) staining (BMDC, splenocytes). […] The values of CI<1, CI=1, and CI>1 represent synergy, additivity, and antagonism, respectively^53.
(Tetrazolium dyes change colour on reduction, which living cells bring about.)

The next data set has as its system BMDCs and JAWSII DCs. The data set is described as follows: BMDC and JAWSII DC stimulation (maturation markers, flow cytometry). The class given is cell-based, mouse. For orientation: Flow cytometry measures light scatter and fluorescence of single cells or particles in a stream.
A further data set deals with BMDCs and BMDMs. The experiment in a line: Cytokine production from BMDC and BMDM (ELISA). Format: cell-based, mouse. The conditions noted are these: 24 h. The procedure: as §1
After 24 h incubation, the cells were collected, resuspended in staining buffer, incubated with Fc-blocking antibody for 15 min at 4° C., labeled with anti-mouse CD11c, CD86, CD40, and MHC-II antibodies for 20 min at 4° C., and analyzed by the BD Accuri C6 Flow Cytometer. […] After 24 h, the media were analyzed for IL-1β and TNF-α by ELISA (Invitrogen, Carlsbad, CA) according to the manufacturer's protocols.

Another data set has as its target T1, TLR-5 (Mus musculus, UniProt Q9JLF7).
T1 construct: host or cells: HEK-Blue mTLR5 cells
The experiment in a line: TLR-5 activation assay, HEK-Blue mTLR5 reporter cells (SEAP). The class given is cell-based. The following applies: TLR reporter cell line, colorimetric SEAP. The procedure:
(§2) TLR-5 activation was tested with HEK-Blue™ mTLR5 Cells, TLR-5 reporter cells (Invitrogen, Carlsbad, CA). The TLR-4 reporter cells were plated in a 96 well plate at a density of 100,000 cells per well in RPMI medium. The TLR-5 reporter cells were plated in a 96 well plate with a density of 25,000 cells per well in HEK-Blue™ Detection medium. […] The supernatant was collected for secreted embryonic alkaline phosphatase (SEAP) assay. The absorbance of SEAP was measured at 620 nm.

Another data set deals with T2, TLR-4 (Homo sapiens, UniProt O00206).
T2 construct: host or cells: THP1-XBlue-MD2-CD14 cells
T2 sequence (O00206 24-839): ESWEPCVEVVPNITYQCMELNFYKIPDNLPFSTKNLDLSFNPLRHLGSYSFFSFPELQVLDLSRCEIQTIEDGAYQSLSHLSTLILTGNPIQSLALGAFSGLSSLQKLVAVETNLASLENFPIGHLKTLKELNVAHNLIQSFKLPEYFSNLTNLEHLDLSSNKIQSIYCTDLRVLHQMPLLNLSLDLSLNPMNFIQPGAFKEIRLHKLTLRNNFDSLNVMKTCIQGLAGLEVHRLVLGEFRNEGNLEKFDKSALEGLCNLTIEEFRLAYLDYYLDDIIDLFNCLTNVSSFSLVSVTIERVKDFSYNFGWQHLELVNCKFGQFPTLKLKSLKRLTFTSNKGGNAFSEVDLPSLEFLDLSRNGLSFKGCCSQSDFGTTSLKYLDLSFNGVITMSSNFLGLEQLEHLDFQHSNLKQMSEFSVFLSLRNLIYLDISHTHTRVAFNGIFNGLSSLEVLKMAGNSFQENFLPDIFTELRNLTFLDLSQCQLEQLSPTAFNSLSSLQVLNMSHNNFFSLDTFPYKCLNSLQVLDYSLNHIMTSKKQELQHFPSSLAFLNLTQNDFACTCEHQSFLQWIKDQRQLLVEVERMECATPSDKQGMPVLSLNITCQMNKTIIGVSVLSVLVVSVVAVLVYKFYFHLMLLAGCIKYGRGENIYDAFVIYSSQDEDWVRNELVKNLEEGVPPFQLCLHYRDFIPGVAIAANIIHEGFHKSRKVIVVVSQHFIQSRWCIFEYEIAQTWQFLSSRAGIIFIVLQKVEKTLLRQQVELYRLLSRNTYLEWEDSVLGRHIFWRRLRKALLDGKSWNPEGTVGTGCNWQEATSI
T2 sequence (Q9Y6Y9 17-160 partner limits assumed): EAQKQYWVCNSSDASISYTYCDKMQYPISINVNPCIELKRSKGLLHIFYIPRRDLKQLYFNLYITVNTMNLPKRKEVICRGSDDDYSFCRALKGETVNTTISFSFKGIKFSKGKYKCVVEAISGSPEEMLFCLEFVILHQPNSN
The experiment in a line: TLR-4 activation assay, THP1-XBlue-MD2-CD14 reporter cells (SEAP). Format: cell-based. The following applies: at comparable concentrations. The procedure:
as §2

A further data set has as its system CT26 and B16F10 cells. The data set is described as follows: CRT expression in tumor cells. Format: cell-based, mouse. The procedure:
2×10^5 CT26 or B16F10 cells were seeded in a 6-well plate overnight. […] After 6 h or 24 h, the cells were collected, resuspended in staining buffer, incubated with anti-mouse CD16/32 antibody to block non-specific binding of the immunoglobulin to Fc receptors, and stained with Alexa Fluor 488-conjugated anti-CRT monoclonal antibody (ab196158, Abcam). The cells were incubated with 0.5 μg/mL propodium iodide for 1 min prior to the analysis with the BD Accuri C6 Flow Cytometer. For visualizing CRT exposure, 2×10^5 CT26 or B16F10 cells were seeded in a confocal dish, incubated with different treatments for 24 h, washed, stained in the same manner as above, and fixed with 4% paraformaldehyde. Confocal images of the fixed cells were taken with the Nikon A1R confocal microscope (Nikon America Inc., Melville, NY) after brief staining with 2 μg/mL Hoechst 33342.

The subject of data set [1] is DCs or BMDMs co-cultured with CT26 or B16F10 cells. The following applies: PTX-pretreated CT26 or B16F10 cells, with 7 μg/mL 2E′. The procedure: CT26 or B16F10 cancer cells were stained with Cell Tracker Green (Invitrogen, Carlsbad, CA) for 1 h and treated with 5 μg/mL PTX for 24 h. […] The co-cultured cells were collected, resuspended in staining buffer, and analyzed by the BD Accuri C6 Flow Cytometer or BD LSRFortessa Flow Cytometer (San Jose, CA, USA). DCs taking up the PTX-treated cancer cells (cancer cell^+ DC or macrophages) was quantified as the percentage of double-positive cells in Cell-Tracker Deep Red-stained BMDC, JAWSII DC or BMDM, and the phagocytized cancer cells as the percentage of double-positive cells in Cell Tracker Green-stained cancer cells.

Data set [2] deals with CT26 tumors. The data set is described as follows: Antitumor effects in Balb/c mice with bilateral CT26 tumors. The class given is in vivo. The conditions noted are these: single IT injection, 1 mg 2E′ (+0.2 mg PTX) per mouse. The procedure: Tumors were established in both flanks simultaneously by subcutaneous inoculation. 1×10^6 of CT26 cells were innoculated in the flank of the right hind limb, and 3×10^5 of CT26 cells in the left flank of the same mouse. […] The sizes of the treated tumor and the non-treated tumor on the left side were measured with a digital caliper every other day, and tumor volumes were calculated as (width^2×length)/2.

Data set [3] deals with CT26 tumors. The experiment in a line: Antitumor effects in Balb/c mice with CT26 tumors and delayed rechallenge(s) of live cells. The class given is in vivo. The text has this: Tumor growth was monitored as described above. To test whether antitumor immunity was established, the mice surviving with complete tumor remission by 30 days from the treatment were rechallenged with 1×10^5 live CT26 cells on the contralateral flank. The mice resistant to the first rechallenge were challenged again with 2×10^6 live CT26 cells on 60 days from the treatment. In two separate experiments, surviving Balb/c mice were rechallenged once on 6 or 17 days after the treatment.

For the next data set, the system named is B16F10 cells. The following applies: 24 h incubation.

T1 sequence (Q9JLF7 27-859): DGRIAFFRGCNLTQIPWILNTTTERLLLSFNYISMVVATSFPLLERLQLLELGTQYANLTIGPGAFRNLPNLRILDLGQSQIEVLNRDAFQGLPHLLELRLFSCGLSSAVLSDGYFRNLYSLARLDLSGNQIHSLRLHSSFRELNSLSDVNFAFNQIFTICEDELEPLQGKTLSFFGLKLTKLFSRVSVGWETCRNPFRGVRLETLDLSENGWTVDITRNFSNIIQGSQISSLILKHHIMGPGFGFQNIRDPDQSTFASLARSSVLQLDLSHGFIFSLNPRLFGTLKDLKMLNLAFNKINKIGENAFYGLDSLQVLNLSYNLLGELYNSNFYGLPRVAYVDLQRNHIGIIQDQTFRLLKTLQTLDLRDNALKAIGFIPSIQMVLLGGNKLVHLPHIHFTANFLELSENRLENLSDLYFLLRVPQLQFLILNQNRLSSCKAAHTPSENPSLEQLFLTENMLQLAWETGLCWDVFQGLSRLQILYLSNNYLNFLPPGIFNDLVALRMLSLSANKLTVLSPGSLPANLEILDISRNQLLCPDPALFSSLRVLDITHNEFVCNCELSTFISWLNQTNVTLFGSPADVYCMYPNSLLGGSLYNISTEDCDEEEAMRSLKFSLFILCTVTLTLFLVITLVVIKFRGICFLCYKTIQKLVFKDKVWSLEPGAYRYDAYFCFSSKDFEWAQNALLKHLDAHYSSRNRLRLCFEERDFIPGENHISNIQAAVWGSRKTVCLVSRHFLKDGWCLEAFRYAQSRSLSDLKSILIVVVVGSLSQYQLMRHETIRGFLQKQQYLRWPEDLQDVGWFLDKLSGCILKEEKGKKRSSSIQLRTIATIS

For the compound `CC(=O)O[C@H]1C(=O)[C@@]2(C)[C@H]([C@H](OC(=O)c3ccccc3)[C@]3(O)C[C@H](OC(=O)[C@H](O)[C@@H](NC(=O)c4ccccc4)c4ccccc4)C(C)=C1C3(C)C)[C@]1(OC(C)=O)CO[C@@H]1C[C@@H]2O` [PTX, paclitaxel], the “cytotoxicity to BMDCs” value in the data set with BMDCs is listed as “did not show significant cytotoxicity”. The cytotoxicity to splenocytes result in the data set on splenocytes was “did not show significant cytotoxicity”.
As for “Polyethyleneimine-Lithocholic Acid Conjugate [2E′]”, in the data set with CT26 cells, the “toxicity to CT26 cells relative to normal splenocytes” value is on record as “greater toxicity to CT26 cells than normal splenocytes”. Besides, the “toxicity to CT26 cells relative to BMDCs” value in the data set with CT26 cells (24 h incubation) was “more toxic to CT26 and B16F10 cells than to bone marrow-derived DCs”. The “maturation of DCs” value in the data set with BMDCs and JAWSII DCs (BMDCs, JAWSII DCs, 24 h) is “induced the maturation of BMDCs and JAWSII DCs”. Besides, the “immunostimulatory responses relative to PEI” value with BMDCs and JAWSII DCs (all tests: DC maturation, TNF-α/IL-1β, TLR-5, CRT) is recorded as “induced greater responses than PEI”. Also, the “TNF-α and IL-1β production/secretion” value with BMDCs and BMDMs is on record as “promoted the production”. The TLR-5 signaling entry at TLR-5 is “activated TLR-5 signaling”. Besides, the TLR-4 signaling entry at TLR-4 is given as “Neither 2E′ nor PEI activated TLR-4 signaling”. In addition, in the data set on CT26 and B16F10 cells, the “cell surface calreticulin (CRT) exposure” value is “exposed the cell surface calreticulin (CRT)”. Further, the “fractions of DCs or BMDMs taking up cancer cells and of cancer cells taken up” value in data set [1] is “substantially increased”. Further, in the data set with CT26 tumors [2], the “growth of untreated distant tumors vs D5W” value is recorded as “the difference was insignificant” and the “mice with complete regression (CR) of the treated tumors” value is 60%. The “mice with CR (tumor-free)” value with CT26 tumors [3] (1 mg 2E′, 0.2 mg/mL PTX, 0.67 mg siRNA, single IT, n=8) was determined as 50%. The “animals with CR of the treated tumors” value in the data set with CT26 tumors [3] (1.4 mg 2E′ (+0.2 mg PTX) per mouse, single IT) turned out to be 40%. Moreover, in the data set with CT26 tumors [3] (1.4 mg 2E′ (+0.2 mg PTX), rechallenge with live CT26 cells day 17), the “tumor-free mice in which growth of rechallenged tumor was prevented” value is “one of the two”. The “mice with growth of primary tumors inhibited” value in the data set on CT26 tumors [3] (2.7 mg 2E′ (+0.4 mg PTX) per mouse, single IT) amounted to 57%. Further, in the data set with CT26 tumors [3] (2.7 mg 2E′ (+0.4 mg PTX), distant tumor inoculated 6 days after treatment), the “mice with no tumor growth of untreated distant tumor” value is 57%. For the same compound, in the data set on CT26 tumors [3] (2×10^6 live CT26 cells), the “tumor growth after second rechallenge” value is “exponential tumor growth in 10-15 days after the second challenge”. In addition, in the data set with B16F10 cells, the “toxicity to B16F10 cells relative to BMDCs” value was “more toxic to CT26 and B16F10 cells than to bone marrow-derived DCs”.
